In the supplement of paper PMC10307832:

Key:
Assay in all cases: relative viability (nuclei count vs DMSO), 5 days (fraction); higher = more cells survive
XMD13-2 + Lapatinib = compound: C1CC1C(=O)NC2=NNC3=C2C=CC(=C3)C4=CC(=CC=C4)C(=O)NC5CC5 [XMD13-2] + CS(=O)(=O)CCNCc1ccc(-c2ccc3ncnc(Nc4ccc(OCc5cccc(F)c5)c(Cl)c4)c3c2)o1 [Lapatinib] (partner 2 µM)
Outline: (§1)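 After 5 days of treatment, lung cancer cells in 1536-well plates were fixed and stained in a single step (final 0.05% Triton X-100, 1% formaldehyde, 1 ug/ml Hoechst) and their nuclei counted on 4× images. Treatment had been applied by pin tool the day after seeding as one drug alone or as a fixed anchor-drug dose with five library-drug doses (not always all listed) in √10 steps. Relative viability is the nuclei count of treated wells divided by that of vehicle wells, and values are medians of duplicate plates.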

Dasatinib + Pemetrexed = compound: Cc1nc(Nc2ncc(C(=O)Nc3c(C)cccc3Cl)s2)cc(N2CCN(CCO)CC2)n1 [Dasatinib] + Nc1nc2[nH]cc(CCc3ccc(C(=O)N[C@@H](CCC(=O)O)C(=O)O)cc3)c2c(=O)[nH]1 [Pemetrexed] (partner 0.2 µM)
Outline: as §1

ALW-II-49-7 + Pemetrexed = compound: Cc1ccc(C(=O)Nc2cccc(C(F)(F)F)c2)cc1Nc1cncc(C(N)=O)c1 [ALW-II-49-7] + Nc1nc2[nH]cc(CCc3ccc(C(=O)N[C@@H](CCC(=O)O)C(=O)O)cc3)c2c(=O)[nH]1 [Pemetrexed] (partner 0.2 µM)
Outline: as §1

Dasatinib + Lapatinib = compound: Cc1nc(Nc2ncc(C(=O)Nc3c(C)cccc3Cl)s2)cc(N2CCN(CCO)CC2)n1 [Dasatinib] + CS(=O)(=O)CCNCc1ccc(-c2ccc3ncnc(Nc4ccc(OCc5cccc(F)c5)c(Cl)c4)c3c2)o1 [Lapatinib] (partner 2 µM)
Outline: as §1

Cell Line	relative viability (XMD13-2 + Lapatinib; first compound 0.05 µM)	relative viability (XMD13-2 + Lapatinib; first compound 0.1581 µM)	relative viability (XMD13-2 + Lapatinib; first compound 0.5 µM)	relative viability (XMD13-2 + Lapatinib; first compound 1.581 µM)	relative viability (XMD13-2 + Lapatinib; first compound 5 µM)	relative viability (Dasatinib + Pemetrexed; first compound 0.005 µM)	relative viability (Dasatinib + Pemetrexed; first compound 0.01581 µM)	relative viability (Dasatinib + Pemetrexed; first compound 0.05 µM)	relative viability (Dasatinib + Pemetrexed; first compound 0.1581 µM)	relative viability (Dasatinib + Pemetrexed; first compound 0.5 µM)	relative viability (ALW-II-49-7 + Pemetrexed; first compound 0.08 µM)	relative viability (ALW-II-49-7 + Pemetrexed; first compound 0.253 µM)	relative viability (ALW-II-49-7 + Pemetrexed; first compound 0.8 µM)	relative viability (ALW-II-49-7 + Pemetrexed; first compound 2.53 µM)	relative viability (ALW-II-49-7 + Pemetrexed; first compound 8 µM)	relative viability (Dasatinib + Lapatinib; first compound 0.005 µM)	relative viability (Dasatinib + Lapatinib; first compound 0.01581 µM)	relative viability (Dasatinib + Lapatinib; first compound 0.05 µM)	relative viability (Dasatinib + Lapatinib; first compound 0.1581 µM)	relative viability (Dasatinib + Lapatinib; first compound 0.5 µM)
NCI-H1734	1.28	0.995	0.735	0.935	0.85	0.377	0.416	0.387	0.376	0.341	0.427	0.448	0.428	0.404	0.443	1.02	0.755	0.894	0.508	0.531
NCI-H1755	1.08	1.09	1.07	1	1.09	0.465	0.357	0.413	0.346	0.235	0.456	0.48	0.4	0.416	0.403	0.957	0.714	0.749	0.622	0.246
NCI-H1792	1.1	0.873	0.951	0.777	1.06	0.709	0.672	0.605	0.267	0.067	0.561	0.531	0.446	0.857	0.602	0.885	0.859	0.907	0.673	0.364
NCI-H1793	0.885	0.609	1.03	0.601	0.826	0.609	0.503	0.556	0.424	0.488	1.05	0.806	1.08	0.868	0.734	0.587	0.46	0.349	0.622	0.58
NCI-H1915	1.07	1.01	1	1	0.94	0.489	0.455	0.449	0.337	0.159	0.451	0.546	0.49	0.457	0.375	0.939	0.892	0.87	0.382	0.242
NCI-H1944	1.01	0.726	0.95	1.06	0.746	0.573	0.583	0.49	0.234	0.158	0.6	0.597	0.611	0.582	0.537	0.598	0.736	0.577	0.334	0.268
NCI-H1975	0.968	0.922	0.991	1.01	1.01	0.284	0.286	0.297	0.239	0.201	0.312	0.306	0.266	0.296	0.244	0.779	0.701	0.595	0.419	0.23
NCI-H1993	0.904	0.87	0.931	0.765	0.706	0.591	0.498	0.616	0.395	0.385	0.61	0.515	0.631	0.591	0.64	0.761	0.771	0.776	0.731	0.737
NCI-H2009	0.914	1.03	1.16	0.894	0.519	1.17	1.09	1.31	0.946	0.243	0.971	1.14	0.955	0.751	0.749	1.13	1	0.96	0.305	0.151
NCI-H2023	0.932	0.739	0.835	0.724	0.3	0.204	0.238	0.195	0.175	0.191	0.235	0.23	0.237	0.214	0.242	0.584	0.703	0.742	0.758	0.64
NCI-H2085	0.821	0.776	0.87	0.809	0.699	0.743	0.756	0.491	0.23	0.205	0.867	1.01	0.913	1.01	0.854	0.666	0.624	0.417	0.199	0.182
NCI-H2087	1.06	1.48	1.01	1.23	0.737	0.719	0.617	0.67	0.649	0.471	0.637	0.679	0.673	0.606	0.621	1.03	0.839	0.95	1.09	0.605
NCI-H2126	0.728	0.767	0.792	0.706	0.765	0.736	0.608	0.636	0.499	0.344	0.733	0.708	0.654	0.661	0.755	0.748	0.584	0.669	0.525	0.328
NCI-H2170	0.307	0.272	0.278	0.284	0.266	0.255	0.257	0.243	0.221	0.206	0.283	0.275	0.244	0.302	0.285	0.264	0.236	0.271	0.259	0.216
NCI-H2228	1.42	1.19	1.05	1.23	0.426	0.323	0.325	0.319	0.259	0.128	0.323	0.356	0.356	0.289	0.134	0.829	1.06	0.705	0.731	0.551
